What all share (test): Test 1A glasshouse assay, post-emergence herbicidal activity
Holding throughout (type): in vivo

Assay [1] concerns Alopecurus myosuroides (ALOMY). To be noted: Alopecurus myosuroides, 312 h, application rate 250 g/ha, 13 days after application, visual (100%=total damage; 0%=no damage), read-out: Post-emergence Herbicidal Activity (% Phytotoxicity) ALOMY. Summed up: (§1)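 Pots sown in standard soil; plants grown 8 days in glasshouse (24/16 °C day/night, 14 h light, 65% humidity), then sprayed with compound formulated in acetone/water (50:50) with 0.5% Tween 20. Regrown under same conditions, watered twice daily; visual % phytotoxicity scored 13 days after application (0 = none, 100 = total damage).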

The next assay has as its system Lolium perenne (LOLPE). To be noted: Lolium perenne, 312 h, application rate 250 g/ha, 13 days after application, visual (100%=total damage; 0%=no damage), read-out: Post-emergence Herbicidal Activity (% Phytotoxicity) LOLPE. Summed up: as §1
For another assay, the system named is Avena fatua (AVEFA). To be noted: Avena fatua, 312 h, application rate 250 g/ha, 13 days after application, visual (100%=total damage; 0%=no damage), read-out: Post-emergence Herbicidal Activity (% Phytotoxicity) AVEFA. A digest of the protocol:
as §1

Assay [2] has as its system Echinochloa crus-galli (ECHCG). To be noted: Echinochloa crus-galli, 312 h, application rate 250 g/ha, 13 days after application, visual (100%=total damage; 0%=no damage), read-out: Post-emergence Herbicidal Activity (% Phytotoxicity) ECHCG. Summed up:
as §1

Regarding `Cc1cc(-c2ccc(Cl)cn2)cc(C)c1C1C(=O)CC(CCNC(=O)c2ccccn2)C1=O` (stereo not shown) [Compound A38], the pest or weed control at 250 g/ha (in assay [1]; with Lolium perenne (LOLPE); with Avena fatua (AVEFA); in assay [2]) was 100% throughout.

On to `Cc1cc(C)c(C2C(=O)CC(CCNC(=O)c3cc(C#N)ccn3)C2=O)c(C)c1` (stereo not shown) [Compound A148], for which the pest or weed control at 250 g/ha in assay [1] came out at 70%; in the assay on Lolium perenne (LOLPE), 90%; with Avena fatua (AVEFA) it was 90%; in assay [2], 90%.

Take `COc1ccccc1C(=O)NCCC1CC(=O)C(c2c(C)cc(C)cc2C)C1=O` (stereo not shown) [Compound A11]: the pest or weed control at 250 g/ha amounted to 70% in assay [1], 100% in the assay on Lolium perenne (LOLPE), 70% with Avena fatua (AVEFA) and 100% in assay [2].

On to `Cc1cc(C)c(C2C(=O)CC(CCNC(=O)c3cccnc3Cl)C2=O)c(C)c1` (stereo not shown) [Compound A26], for which the pest or weed control at 250 g/ha (in assay [1]; with Lolium perenne (LOLPE); in the assay on Avena fatua (AVEFA); in assay [2]) was 80% in each case.

On to `Cc1cc(C)c(C2=C(OC(=O)N3CCCC3)CC(CCNC(=O)c3ccc(Br)cn3)C2=O)c(C)c1` (stereo not shown) [Compound P22], for which the pest or weed control at 250 g/ha in assay [1] is 90%; in the assay on Lolium perenne (LOLPE), 100%; with Avena fatua (AVEFA), 100%; in assay [2] it was 100%.

For `COc1cccc(C(=O)NCCC2CC(=O)C(c3c(C)cc(C)cc3C)C2=O)n1` (stereo not shown) [Compound A91], the pest or weed control at 250 g/ha (in assay [1]; with Lolium perenne (LOLPE); with Avena fatua (AVEFA); in assay [2]) was 80% each time.

As to `Cc1cc(C)c(C2C(=O)CC(CCNC(=O)c3cccc(C#N)n3)C2=O)c(C)c1` (stereo not shown) [Compound A147], the pest or weed control at 250 g/ha in assay [1] came to 60%; in the assay on Lolium perenne (LOLPE) it was 70%; in the assay with Avena fatua (AVEFA) it was 60%; in assay [2] it was 60%.

For `Cc1cc(-c2cccc(Cl)c2)cc(C)c1C1C(=O)CC(CCNC(=O)c2ccccn2)C1=O` (stereo not shown) [Compound A111, N-[2-[3-[4-(3-chlorophenyl)-2,6-dimethyl-phenyl]-2,4-dioxo-cyclopentyl]ethyl]pyridine-2-carboxamide], the pest or weed control at 250 g/ha (in assay [1]; in the assay with Lolium perenne (LOLPE); in the assay on Avena fatua (AVEFA); in assay [2]) was 100% in each case.

In the case of `Cc1cc(C)c(C2C(=O)CC(CCNC(=O)c3nc(Cl)sc3C)C2=O)c(C)c1` (stereo not shown) [Compound A143], the pest or weed control at 250 g/ha in assay [1] is 90%; in the assay with Lolium perenne (LOLPE), 100%; in the assay on Avena fatua (AVEFA) it was 90%; in assay [2], 100%.

For `Cc1cccc(C(=O)NCCC2CC(=O)C(c3c(C)cc(-n4cc(Cl)cn4)cc3C)C2=O)n1` (stereo not shown) [Compound A130], the pest or weed control at 250 g/ha in assay [1] worked out at 30%; with Lolium perenne (LOLPE), 80%; in the assay on Avena fatua (AVEFA) it was 80%; in assay [2], 80%.

Regarding `Cc1cc(C)c(C2C(=O)CC(CCNC(=O)c3nc(C)sc3C)C2=O)c(C)c1` (stereo not shown) [Compound A182], the pest or weed control at 250 g/ha was 80% in assay [1], 80% in the assay on Lolium perenne (LOLPE), 90% in the assay with Avena fatua (AVEFA) and 90% in assay [2].

As for `Cc1cc(C)c(C2=C(OS(=O)(=O)c3ccc(F)cc3)CC(CCNC(=O)c3ccc(Br)cn3)C2=O)c(C)c1` (stereo not shown) [Compound P19], the pest or weed control at 250 g/ha (in assay [1]; with Lolium perenne (LOLPE); in the assay on Avena fatua (AVEFA); in assay [2]) was 100% in each case.

For the molecule `Cc1cc(-n2cc(Cl)cn2)cc(C)c1C1C(=O)CC(CCNC(=O)c2cccc(Br)n2)C1=O` (stereo not shown) [Compound A134], the pest or weed control at 250 g/ha (in assay [1]; in the assay on Lolium perenne (LOLPE); in the assay with Avena fatua (AVEFA); in assay [2]) was 100% throughout.

As to `Cc1cc(-n2cc(Cl)cn2)cc(C)c1C1C(=O)CC(CCNC(=O)c2ccc(Br)cn2)C1=O` (stereo not shown) [Compound A136], the pest or weed control at 250 g/ha in assay [1] stood at 100%; with Lolium perenne (LOLPE), 100%; with Avena fatua (AVEFA), 90%; in assay [2] it was 100%.

On to `Cc1cc(C)c(C2C(=O)CC(CCNC(=O)c3nn(C)c(C)c3Cl)C2=O)c(C)c1` (stereo not shown) [Compound A177], for which the pest or weed control at 250 g/ha came out at 100% in assay [1], 90% in the assay with Lolium perenne (LOLPE), 90% in the assay on Avena fatua (AVEFA) and 100% in assay [2].

`Cc1cc(C)c(C2C(=O)CC(CCNC(=O)c3ncccc3Cl)C2=O)c(C)c1` (stereo not shown) [Compound A44, 3-chloro-N-[2-[2,4-dioxo-3-(2,4,6-trimethylphenyl)cyclopentyl]ethyl]pyridine-2-carboxamide]: the pest or weed control at 250 g/ha turned out to be 100% in assay [1], 100% with Lolium perenne (LOLPE), 90% with Avena fatua (AVEFA) and 100% in assay [2].

Consider `CCc1cc(-c2ccc(F)cc2)cc(C)c1C1C(=O)CC(CCNC(=O)c2ccccn2)C1=O` (stereo not shown) [Compound A86, N-[2-[3-[2-ethyl-4-(4-fluorophenyl)-6-methyl-phenyl]-2,4-dioxo-cyclopentyl]ethyl]pyridine-2-carboxamide], for which the pest or weed control at 250 g/ha (in assay [1]; in the assay with Lolium perenne (LOLPE); in the assay on Avena fatua (AVEFA); in assay [2]) was 100% throughout.

Turning to `Cc1cc(C)c(C2C(=O)CC(CCNC(=O)c3ncc(C(F)(F)F)cc3Cl)C2=O)c(C)c1` (stereo not shown) [Compound A43], the pest or weed control at 250 g/ha (in assay [1]; in the assay on Lolium perenne (LOLPE); with Avena fatua (AVEFA); in assay [2]) was 100% in each case.

Regarding `Cc1cc(C)c(C2C(=O)CC(CCNC(=O)c3sc(C(F)(F)F)nc3C(F)(F)F)C2=O)c(C)c1` (stereo not shown) [Compound A172], the pest or weed control at 250 g/ha worked out at 90% in assay [1], 100% with Lolium perenne (LOLPE), 90% in the assay with Avena fatua (AVEFA) and 100% in assay [2].

`Cc1cc(-c2ccc(Cl)cc2)cc(C)c1C1C(=O)CC(CCNC(=O)c2ccccn2)C1=O` (stereo not shown) [Compound A104]: the pest or weed control at 250 g/ha amounted to 90% in assay [1], 100% in the assay on Lolium perenne (LOLPE), 90% in the assay with Avena fatua (AVEFA) and 100% in assay [2].

In the case of `Cc1cc(C)c(C2C(=O)CC(CCNC(=O)c3cccnc3Br)C2=O)c(C)c1` (stereo not shown) [Compound A168], the pest or weed control at 250 g/ha in assay [1] was 60%; in the assay with Lolium perenne (LOLPE), 70%; with Avena fatua (AVEFA), 80%; in assay [2], 80%.

With `Cc1cc(C)c(C2C(=O)CC(CCNC(=O)c3nccnc3Cl)C2=O)c(C)c1` (stereo not shown) [Compound A194], the pest or weed control at 250 g/ha in assay [1] was found to be 80%; in the assay on Lolium perenne (LOLPE), 90%; in the assay with Avena fatua (AVEFA) it was 90%; in assay [2], 100%.

As for `Cc1cc(-n2cc(Cl)cn2)cc(C)c1C1C(=O)CC(CCNC(=O)c2ncccc2F)C1=O` (stereo not shown) [Compound A133], the pest or weed control at 250 g/ha was 100% in assay [1], 100% in the assay on Lolium perenne (LOLPE), 90% in the assay with Avena fatua (AVEFA) and 100% in assay [2].

Consider `COc1cc(Cl)nc(C(=O)NCCC2CC(=O)C(c3c(C)cc(C)cc3C)C2=O)c1` (stereo not shown) [Compound A65], for which the pest or weed control at 250 g/ha in assay [1] turned out to be 100%; with Lolium perenne (LOLPE), 80%; in the assay on Avena fatua (AVEFA) it was 70%; in assay [2], 80%.

Regarding `Cc1cc(C)c(C2C(=O)CC(CCNC(=O)C(F)c3ccccc3)C2=O)c(C)c1` (stereo not shown) [Compound A50], the pest or weed control at 250 g/ha in assay [1] was 20%; with Lolium perenne (LOLPE), 100%; in the assay on Avena fatua (AVEFA), 70%; in assay [2], 70%.

Take `C#Cc1cc(C)c(C2C(=O)CC(CCNC(=O)c3ccccn3)C2=O)c(CC)c1` (stereo not shown) [Compound A85, N-[2-[3-(2-ethyl-4-ethynyl-6-methyl-phenyl)-2,4-dioxo-cyclopentyl]ethyl]pyridine-2-carboxamide]: the pest or weed control at 250 g/ha is 90% in assay [1], 100% in the assay on Lolium perenne (LOLPE), 100% with Avena fatua (AVEFA) and 100% in assay [2].

For the molecule `COC(=O)OC(C)OC1=C(c2c(C)cc(C)cc2C)C(=O)C(CCNC(=O)c2ccc(Br)cn2)C1` (stereo not shown) [Compound P3], the pest or weed control at 250 g/ha was determined as 90% in assay [1], 100% with Lolium perenne (LOLPE), 100% in the assay on Avena fatua (AVEFA) and 100% in assay [2].

Regarding `Cc1cc(C)c(C2C(=O)CC(CCNC(=O)c3ccc(OC(F)(F)F)cc3)C2=O)c(C)c1` (stereo not shown) [Compound A15], the pest or weed control at 250 g/ha in assay [1] turned out to be 60%; in the assay with Lolium perenne (LOLPE) it was 90%; in the assay on Avena fatua (AVEFA), 90%; in assay [2], 100%.

The record behind these values is patent US9808003B2, “Herbicidally active 2-(substituted-phenyl)-cyclopentane-1,3-dione compounds and derivatives thereof” (Syngenta Limited, priority 2013, dated 2017).
